Here are results for 1 substance from patent publication US20170274005A1, “TREATMENT OF RETINITIS PIGMENTOSA USING HYALURONIC ACID-CARBON NANOMATERIAL-PHOTOSENSITIZER COMPLEX” (POSTECH ACADEMY-INDUSTRY FOUNDATION, priority 2016, published 2017).

A short description of assay [1]: Analysis of prevention of active oxygen using DPPH. Conditions: aqueous solution, 0 to 100 μg/mL based on the amount of Ce6, FIG. 2. For orientation: Loss of DPPH colour is used to gauge radical scavenging.
The subject of assay [2] is retinal pigment epithelium cell. The assay can be described thus: MTT assay of retinal pigment epithelium cell treated using sodium iodate. It counts as cell-based. Conditions: pre-treatment, then 5 mM sodium iodate, 24 hours, FIG. 5. On the technique in general: Tetrazolium dyes change colour on reduction, which living cells bring about.

In the case of chlorine e6 [Ce6], the “active oxygen suppression ability” value in assay [1] was 60%. The “viability of the pre-treated cell versus cell treated using sodium iodate only” value in assay [2] is given as “lower”.
